Square brackets hold non-standard residues; d marks the D form. Peptide text beside a SMILES is read from it. NMeR = CN[C@@H](CCCNC(=N)N)C(=O)O; Tle = CC(C)(C)[C@H](N)C(=O)O
Key:
[1] = target: Neurotensin receptor type 1 (Mus musculus, UniProt O88319)
[2] = target: Neurotensin receptor type 2 (Mus musculus, UniProt P70310)
Neurotensin receptor type 2, sequence (P70310 whole entry): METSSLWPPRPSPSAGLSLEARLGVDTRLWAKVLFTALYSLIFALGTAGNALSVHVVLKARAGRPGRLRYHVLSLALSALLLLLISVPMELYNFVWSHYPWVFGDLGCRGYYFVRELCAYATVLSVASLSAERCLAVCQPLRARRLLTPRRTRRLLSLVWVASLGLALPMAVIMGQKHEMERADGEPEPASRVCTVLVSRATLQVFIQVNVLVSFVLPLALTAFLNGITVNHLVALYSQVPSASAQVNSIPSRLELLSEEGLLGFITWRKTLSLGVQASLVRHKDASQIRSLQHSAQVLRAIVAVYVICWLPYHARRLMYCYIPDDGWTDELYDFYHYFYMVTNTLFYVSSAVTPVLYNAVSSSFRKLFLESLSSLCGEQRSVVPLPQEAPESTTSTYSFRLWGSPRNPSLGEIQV

Neurotensin receptor type 1, sequence (O88319 whole entry): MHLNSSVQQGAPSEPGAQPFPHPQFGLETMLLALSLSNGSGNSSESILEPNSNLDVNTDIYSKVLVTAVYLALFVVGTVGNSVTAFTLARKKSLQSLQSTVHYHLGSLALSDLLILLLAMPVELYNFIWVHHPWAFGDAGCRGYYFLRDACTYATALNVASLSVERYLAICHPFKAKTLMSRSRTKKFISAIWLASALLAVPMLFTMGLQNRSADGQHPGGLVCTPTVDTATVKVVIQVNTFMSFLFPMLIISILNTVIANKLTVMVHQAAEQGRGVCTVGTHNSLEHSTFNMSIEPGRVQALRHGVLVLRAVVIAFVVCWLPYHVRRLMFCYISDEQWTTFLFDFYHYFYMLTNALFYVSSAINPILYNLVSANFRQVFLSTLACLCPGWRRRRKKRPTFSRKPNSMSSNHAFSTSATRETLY

Molecule	Ki [1] [nM]	Ki [2] [nM]
CN[C@@H](CCCNC(=N)N)C(=O)N[C@@H](CCCCN)C(=O)N1CCC[C@H]1C(=O)N[C@@H](Cc1c[nH]c2ccccc12)C(=O)N[C@H](C(=O)N[C@@H](CC(C)C)C(=O)O)C(C)(C)C (H-[NMeR]KPW[Tle]L-OH)	0.11	3.8
CC1CN(C2CCC(C#N)(c3ccc(F)cc3)CC2)CCC1(C(=O)O)c1ccccc1 (stereo not given) [NSC_54385]	–	17
H-KNPYIL-OH [NSC_128644]	0.25	7
